Data taken from patent US9540380B2, “Imidazotriazinone compounds” (Ironwood Pharmaceuticals, Inc., priority 2010, dated 2017).

molecular target: T1, PDE9A2 (Homo sapiens, UniProt O76083); test: Phosphodiesterase Enzyme Screening Assay, PDE9A2 (Caliper LabChip mobility-shift); type: biochemical; conditions: 10 concentrations, 4.0 μM cGMP substrate, 1 hour at R.T.; read-out: Band (PDE9A2 IC50)
T1 construct: purchased Reaction Biology Corporation, Malvern, Pa
Excerpt: (§1) Compounds of the invention were screened against PDE1A, PDE1B, PDE2A, PDE3A, PDE3B, PDE4A1A, PDE4B1, PDE4D3, PDE5A1, PDE6C, PDE7A, PDE8A1, PDE9A2, PDE10A2 AND PDE11A isoforms of the phosphodiesterase enzyme to determine activity and overall selectivity through comparative analysis. The assay generally consists of testing the compounds of the invention at 10 concentrations. Where 8-methoxy-IBMX and Zaprinast were used as reference inhibitors.
(§2) The phosphodiesterase enzyme isoforms were obtained from a commercial retailer (Reaction Biology Corporation, Malvern, Pa.) for use in the instant screening assay.
(§3) The analysis was completed using the Caliper LabChip 3000 and a 12-sipper LabChip. LabChip assays are separations-based, meaning that the product and substrate are electrophoretically separated, thereby minimizing interferences and yielding the highest data quality available on any screening platform. Z′ factors for both the EZ Reader and LC3000 enzymatic assays are routinely in the 0.8 to 0.9 range. High Z′ values, few false positives, few false negatives and analytical quality reproducibility are the reasons cited for the increasing reliance on the LabChip assays.
(§4) The off-chip incubation mobility-shift phosphodiesterase assay uses a microfluidic chip to measure the conversion of a fluorescent cyclic AMP substrate to a 5′-AMP product, or a cyclic GMP substrate to a 5′-GMP product. The reaction mixture, from a microtiter plate well, is introduced through a capillary sipper onto the chip, where the fluorescent substrate and product are separated by electrophoresis and detected via laser-induced fluorescence. […] The precision of microfluidics allows researchers to detect subtle interactions between drug candidates and therapeutic targets. The technology is able to detect both strong and weak inhibitors with high accuracy, and routinely identifies drug candidates that conventional techniques miss.
(§5) Reactions were carried out in 100 mM HEPES (pH 7.5), 5 mM MgCl2, 1 mM DTT, 0.003% Brij, 4.0 μM cGMP substrate. The reaction was started by addition of cGMP or cAMP and incubated for 1 hour at R.T. The reaction was terminated by the addition of stop buffer containing 100 mM HEPES (pH 7.5), 15 mM EDTA, 0.015% Brij-35, 5% DMSO. Cyclic AMP/GMP substrate and 5′-AMP/5′-GMP product were separated by charge using electrophoretic mobility shift. Product formed was compared to control wells to determine inhibition or enhancement of enzyme activity.
(§6) One or more reference compounds, depending on phosphodiesterase isoform, selected from 8-methoxy-IBMX, Zaprinast, Trequinsin, Pentoxifyline, Rolipram, and Vinpocetine, Dipyridamole, and BRL-50481 were run alongside client samples to ensure data quality. The resulting IC50 is compared against the historical average and must be within 3-fold of this average.
(§7) Data points were averages of quadruplicate wells and error bars represented the SEM for each point. IC50s were determined using GraphPad Prism Version 5.01 and the log (inhibitor) vs. response variable slope curve fit.

T1 sequence (O76083 1-533 isoform O76083-2): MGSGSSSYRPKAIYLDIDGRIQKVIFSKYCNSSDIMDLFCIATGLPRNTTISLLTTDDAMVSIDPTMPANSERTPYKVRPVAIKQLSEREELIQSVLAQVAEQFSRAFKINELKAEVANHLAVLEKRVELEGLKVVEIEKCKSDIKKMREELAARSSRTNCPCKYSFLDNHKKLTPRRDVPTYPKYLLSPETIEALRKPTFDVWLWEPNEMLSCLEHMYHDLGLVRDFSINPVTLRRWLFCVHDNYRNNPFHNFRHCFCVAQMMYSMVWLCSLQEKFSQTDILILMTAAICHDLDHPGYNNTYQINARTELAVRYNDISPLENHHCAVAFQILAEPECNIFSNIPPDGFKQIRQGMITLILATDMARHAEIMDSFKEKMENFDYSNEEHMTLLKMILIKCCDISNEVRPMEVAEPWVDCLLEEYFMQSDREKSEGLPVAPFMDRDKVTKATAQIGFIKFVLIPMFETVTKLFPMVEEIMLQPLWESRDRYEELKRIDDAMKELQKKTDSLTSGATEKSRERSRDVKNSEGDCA

SMILES | IC50 [nM]
C[C@@H]1CN(Cc2cn3ncccc3n2)C[C@H]1c1nn2c(C3CCOCC3)ncc2c(=O)[nH]1 (single isomer, unassigned) [(−)-2-((3,4-trans)-1-(imidazo[1,2-b]pyridazin-2-ylmethyl)-4-] [(−)-2-((3,4-trans)-1-(imidazo[1,2-b]pyridazin-2-ylmethyl)-4-methylpyrrolidin-3-yl)-7-(tetrahydro-2H-pyran-4-yl)imidazo[5,1-f][1,2,4]triazin-4(3H)-one] | < 1000
C[C@@H]1CN(Cc2ccc3nccn3n2)C[C@H]1c1nn2c(C3CCOCC3)ncc2c(=O)[nH]1 (single isomer, unassigned) [(−)-2-((3,4-trans)-1-(imidazo[1,2-b]pyridazin-6-ylmethyl)-4-methylpyrrolidin-3-yl)-7-(tetrahydro-2H-pyran-4-yl)imidazo[5,1-f][1,2,4]triazin-4(3H)-one] | < 1000
CCS(=O)(=O)N1CCC(c2ncc3c(=O)[nH]c([C@@H]4CN(Cc5ccccc5)C[C@H]4C)nn23)CC1 (single isomer, unassigned) [(−)-2-((3,4-trans)-1-benzyl-4-methylpyrrolidin-3-yl)-7-(1-(ethylsulfonyl)piperidin-4-yl)imidazo[5,1-f][1,2,4]triazin-4(3H)-one] | > 10000
C[C@@H]1CN(Cc2ccccc2)C[C@H]1c1nn2c(C(C)(C)O)ncc2c(=O)[nH]1 (single isomer, unassigned) [(−)-2-((3,4-trans)-1-benzyl-4-methylpyrrolidin-3-yl)-7-(2-hydroxypropan-2-yl)imidazo[5,1-f][1,2,4]triazin-4(3H)-one] | > 10000
C[C@@H]1CN(Cc2ccccc2)C[C@H]1c1nn2c(C3CCC(F)(F)CC3)ncc2c(=O)[nH]1 (single isomer, unassigned) [(−)-2-((3,4-trans)-1-benzyl-4-methylpyrrolidin-3-yl)-7-(4,4-difluorocyclohexyl)imidazo[5,1-f][1,2,4]triazin-4(3H)-one] | < 1000
Cc1cc(F)ccc1-c1ncc2c(=O)[nH]c([C@@H]3CN(Cc4ccccc4)C[C@H]3C)nn12 (single isomer, unassigned) [(−)-2-((3,4-trans)-1-benzyl-4-methylpyrrolidin-3-yl)-7-(4-fluoro-2-methylphenyl)imidazo[5,1-f][1,2,4]triazin-4(3H)-one] | > 10000
CC1CN([C@@H](C)c2ccccc2)CC1c1nn2c(C3CCOCC3)ncc2c(=O)[nH]1 (single isomer, unassigned; (+)) | < 1000
CC1CN(Cc2ccccc2)CC1c1nn2c(C34CC5CC(CC(C5)C3)C4)ncc2c(=O)[nH]1 (single isomer, unassigned; (+)) | < 1000
CC1CN(Cc2ncccn2)CC1c1nn2c(C34CC5CC(CC(C5)C3)C4)ncc2c(=O)[nH]1 (single isomer, unassigned; (+)) | < 1000
CC1CN([C@H](C)c2ccccc2)CC1c1nn2c(C3CCOCC3)ncc2c(=O)[nH]1 (single isomer, unassigned; (-)) | < 1000
CC1CN(Cc2ccccc2)CC1c1nn2c(C34CC5CC(CC(C5)C3)C4)ncc2c(=O)[nH]1 (single isomer, unassigned; (-)) | > 10000

Next, values leading:

IC50 [nM] | SMILES
1000 to 10000 | Cc1ccc(Cl)cc1-c1ncc2c(=O)[nH]c([C@@H]3CN(Cc4ccccc4)C[C@H]3C)nn12 (single isomer, unassigned) [(−)-2-((3,4-trans)-1-benzyl-4-methylpyrrolidin-3-yl)-7-(5-chloro-2-methylphenyl)imidazo[5,1-f][1,2,4]triazin-4(3H)-one]
1000 to 10000 | C[C@@H]1CN(Cc2ccccc2)C[C@H]1c1nn2c(-c3ccoc3)ncc2c(=O)[nH]1 (single isomer, unassigned) [(−)-2-((3,4-trans)-1-benzyl-4-methylpyrrolidin-3-yl)-7-(furan-3-yl)imidazo[5,1-f][1,2,4]triazin-4(3H)-one]
1000 to 10000 | C[C@@H]1CN(Cc2cnccn2)C[C@H]1c1nn2c(C3CCOCC3)ncc2c(=O)[nH]1 (single isomer, unassigned) [(−)-2-((3,4-trans)-4-methyl-1-(pyrazin-2-ylmethyl)pyrrolidin-3-yl)-7-(tetrahydro-2H-pyran-4-yl)imidazo[5,1-f][1,2,4]triazin-4(3H)-one]
1000 to 10000 | Cc1ccccc1-c1ncc2c(=O)[nH]c([C@@H]3CN(Cc4ncccn4)C[C@H]3C)nn12 (single isomer, unassigned) [(−)-2-((3,4-trans)-4-methyl-1-(pyrimidin-2-ylmethyl)pyrrolidin-3-yl)-7-(o-tolyl)imidazo[5,1-f][1,2,4]triazin-4(3H)-one]
> 10000 | C[C@@H]1CN(Cc2ncccn2)C[C@H]1c1nn2c(C3CCOCC3)ncc2c(=O)[nH]1 (single isomer, unassigned) [(−)-2-((3,4-trans)-4-methyl-1-(pyrimidin-2-ylmethyl)pyrrolidin-3-yl)-7-(tetrahydro-2H-pyran-4-yl)imidazo[5,1-f][1,2,4]triazin-4(3H)-one]
< 1000 | C[C@@H]1CN(Cc2ncc3ccccc3n2)C[C@H]1c1nn2c(C3CCOCC3)ncc2c(=O)[nH]1 (single isomer, unassigned) [(−)-2-((3,4-trans)-4-methyl-1-(quinazolin-2-ylmethyl)pyrroli] [(−)-2-((3,4-trans)-4-methyl-1-(quinazolin-2-ylmethyl)pyrrolidin-3-yl)-7-(tetrahydro-2H-pyran-4-yl)imidazo[5,1-f][1,2,4]triazin-4(3H)-one]
< 1000 | C[C@@H]1CN(Cc2ccc3ccccc3n2)C[C@H]1c1nn2c(C3CCOCC3)ncc2c(=O)[nH]1 (single isomer, unassigned) [(−)-2-((3,4-trans)-4-methyl-1-(quinolin-2-ylmethyl)pyrrolidi] [(−)-2-((3,4-trans)-4-methyl-1-(quinolin-2-ylmethyl)pyrrolidin-3-yl)-7-(tetrahydro-2H-pyran-4-yl)imidazo[5,1-f][1,2,4]triazin-4(3H)-one]
> 10000 | CCS(=O)(=O)N1CCC(c2ncc3c(=O)[nH]c([C@@H]4CN(Cc5ncccn5)C[C@H]4C)nn23)CC1 (single isomer, unassigned) [(−)-7-(1-(ethylsulfonyl)piperidin-4-yl)-2-((3,4-trans)-4-methyl-1-(pyrimidin-2-ylmethyl)pyrrolidin-3-yl)imidazo[5,1-f][1,2,4]triazin-4(3H)-one]
> 10000 | CC(=O)N1CCC(c2ncc3c(=O)[nH]c([C@@H]4CN(Cc5ccccc5)C[C@H]4C)nn23)CC1 (single isomer, unassigned) [(−)-7-(1-acetylpiperidin-4-yl)-2-((3,4-trans)-1-benzyl-4-methylpyrrolidin-3-yl)imidazo[5,1-f][1,2,4]triazin-4(3H)-one]
> 10000 | CC(=O)N1CCC(c2ncc3c(=O)[nH]c([C@@H]4CN(Cc5ncccn5)C[C@H]4C)nn23)CC1 (single isomer, unassigned) [(−)-7-(1-acetylpiperidin-4-yl)-2-((3,4-trans)-4-methyl-1-(pyrimidin-2-ylmethyl)pyrrolidin-3-yl)imidazo[5,1-f][1,2,4]triazin-4(3H)-one]
< 1000 | Cc1cc(F)ccc1-c1ncc2c(=O)[nH]c([C@@H]3CN(Cc4ncccn4)C[C@H]3C)nn12 (single isomer, unassigned) [(−)-7-(4-fluoro-2-methylphenyl)-2-((3,4-trans)-4-methyl-1-(pyrimidin-2-ylmethyl)pyrrolidin-3-yl)imidazo[5,1-f][1,2,4]triazin-4(3H)-one]

molecular target: T2, PDE1A (Homo sapiens, UniProt P54750); test: Phosphodiesterase Enzyme Screening Assay, PDE1A (selectivity versus PDE9A2); type: biochemical; conditions: ratio of IC50 values; value greater than 1 indicates greater selectivity for PDE9A2
T2 construct: purchased Reaction Biology Corporation, Malvern, Pa
T2 sequence (P54750 whole entry): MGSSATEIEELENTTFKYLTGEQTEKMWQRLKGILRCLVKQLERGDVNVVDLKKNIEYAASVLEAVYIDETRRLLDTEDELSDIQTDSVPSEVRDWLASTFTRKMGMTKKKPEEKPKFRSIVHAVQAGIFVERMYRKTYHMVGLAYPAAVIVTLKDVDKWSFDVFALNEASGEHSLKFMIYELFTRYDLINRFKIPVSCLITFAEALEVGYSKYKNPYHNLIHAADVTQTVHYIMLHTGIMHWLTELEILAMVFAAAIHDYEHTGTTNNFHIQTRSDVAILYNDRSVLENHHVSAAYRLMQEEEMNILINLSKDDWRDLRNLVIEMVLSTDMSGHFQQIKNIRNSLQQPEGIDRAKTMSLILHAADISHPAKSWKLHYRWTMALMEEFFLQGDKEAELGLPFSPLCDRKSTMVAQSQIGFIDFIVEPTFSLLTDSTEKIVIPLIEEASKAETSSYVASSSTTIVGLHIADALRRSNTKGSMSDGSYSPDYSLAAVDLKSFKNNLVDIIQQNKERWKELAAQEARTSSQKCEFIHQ
Excerpt: as §1, §2, §3, §4, §5, §6, §7

SMILES | PDE1A selectivity (versus PDE9A2)
CC1CN(Cc2ccccc2)CC1c1nn2c(C3CCCOC3)ncc2c(=O)[nH]1 (single isomer, unassigned) [2-((3,4-trans)-1-benzyl-4-methylpyrrolidin-3-yl)-7-(tetrahyd] [2-((3,4-trans)-1-benzyl-4-methylpyrrolidin-3-yl)-7-(tetrahydro-2H-pyran-3-yl)imidazo[5,1-f][1,2,4]triazin-4(3H)-one] | 28

molecular target: T3, PDE1B (Homo sapiens, UniProt Q01064); test: Phosphodiesterase Enzyme Screening Assay, PDE1B (selectivity versus PDE9A2); type: biochemical; conditions: ratio of IC50 values; value greater than 1 indicates greater selectivity for PDE9A2
T3 construct: purchased Reaction Biology Corporation, Malvern, Pa
T3 sequence (Q01064 whole entry): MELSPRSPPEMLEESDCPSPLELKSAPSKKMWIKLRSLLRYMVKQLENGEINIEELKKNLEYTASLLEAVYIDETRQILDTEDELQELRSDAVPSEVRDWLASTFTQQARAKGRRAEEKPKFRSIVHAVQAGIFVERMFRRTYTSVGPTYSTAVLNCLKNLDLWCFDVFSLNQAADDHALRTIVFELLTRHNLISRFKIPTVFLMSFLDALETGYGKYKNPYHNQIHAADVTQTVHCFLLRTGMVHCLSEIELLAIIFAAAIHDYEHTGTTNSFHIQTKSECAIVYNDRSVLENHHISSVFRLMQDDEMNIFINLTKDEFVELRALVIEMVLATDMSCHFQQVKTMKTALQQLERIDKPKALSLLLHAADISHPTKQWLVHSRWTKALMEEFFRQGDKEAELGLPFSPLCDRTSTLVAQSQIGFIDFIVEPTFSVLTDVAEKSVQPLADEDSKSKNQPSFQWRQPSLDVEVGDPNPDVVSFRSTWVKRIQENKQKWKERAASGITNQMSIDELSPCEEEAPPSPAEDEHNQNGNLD
Excerpt: as §1, §2, §3, §4, §5, §6, §7

SMILES | PDE1B selectivity (versus PDE9A2)
CC1CN(Cc2ccccc2)CC1c1nn2c(C3CCCOC3)ncc2c(=O)[nH]1 (single isomer, unassigned) [2-((3,4-trans)-1-benzyl-4-methylpyrrolidin-3-yl)-7-(tetrahyd] [2-((3,4-trans)-1-benzyl-4-methylpyrrolidin-3-yl)-7-(tetrahydro-2H-pyran-3-yl)imidazo[5,1-f][1,2,4]triazin-4(3H)-one] | 38
